{"source": "patent US20230134986A1", "about": "“GLUCOSE TRIPTOLIDE CONJUGATES AND USES THEREOF” (The Johns Hopkins University, priority 2020, published 2023)", "key": {"[1]": {"system": "HeLa cells", "assay": "Apoptosis signaling in HeLa cells (nuclear fragmentation, cytochrome c, caspase 3, PARP1)", "assay_type": "cell-based, human", "set-up": "percentage of cells with nuclear fragmentation / cytochrome c release from mitochondria to cytosol: unit of the concentration uncertain", "details": "for percentage of cells with nuclear fragmentation: control 6%", "description": "Western blot analysis. Whole cell lysates were prepared by adding lysis buffer [4% SDS, 20% glycerol, 10% 2-mercaptoethanol, 0.004% bromophenol blue, 0.125 M Tris-HCl (pH 6.8)] to the cell pellets for 30 minutes in ice followed by centrifugation at 12,000×g for 10 minutes then boiling for 5 minutes. For isolation of cytosolic and mitochondrial fractions of cytochrome C, cell pellets were resuspended in CLAMI buffer (250 mM sucrose, 70 mM KCl, […] digitonin in 1×PBS, protease inhibitor cocktail (1 tablet/10 ml CLAMI buffer)) then incubated on ice for 5 minutes. After centrifugation at 12,000×g for 5 minutes at 4° C., supernatant (cytoplasmic fraction) was collected and the pellet resuspended in lysis buffer as described above. Proteins were then separated by SDS-PAGE and transferred to nitrocellulose membranes (Bio-Rad). After blocking at room temperature for 1 h, membranes were incubated at 4′C overnight with the primary antibodies including anti-Rpb1 (Santa Cruz Biotechnology), anti-XPB (Biotechne), anti-Actin (Developmental Studies Hybridoma Bank), anti-GAPDH (Santa Cruz Biotechnology), anti-cytochrome C (Santa Cruz Biotechnology), anti-PARP1 (Santa Cruz Biotechnology), anti-cleaved caspase 3 (Cell Signaling Technology), anti-VDAC (ProteinTech), anti-HIF-1[…] (BD sciences), and anti-GLUT1 (Santa Cruz Biotechnology) antibodies followed by incubation with horseradish peroxidase-conjugated anti-mouse or anti-rabbit IgG (GE Healthcare) at room temperature for 2 hours. Antibody-protein complexes were detected using enhanced chemiluminescence (ECL) immunoblotting detection reagent (EMD Millipore).\nImmunocytochemistry and cytochemistry. HeLa or PC3 cells (2×10^5) were seeded on a MatTek glass bottom culture dish (Fisher Scientific, Pittsburgh, Pa., USA) and allowed to adhere for 24 h. Cells were then treated with either DMSO or drugs for 6 or 24 h then fixed with 4% paraformaldehyde, permeabilized using 1×PBS with 0.5% triton X 100 then probed for endogenous RNA Polymerase II catalytic subunit Rpb1 or HIF-1α using anti-RNAPII (Santa Cruz Biotechnology) and anti-HIF-1α (BD sciences) antibodies, respectively. Detection was then done using anti-mouse Alexa Fluor 488 (Invitrogen). For nuclear staining, fixed and permeabilized cells were incubated in DAPI (ThermoFisher) or Hoechst 33258 (Sigma) for 30 minutes prior to imaging. Glucose uptake was monitored by incubating cells in 200 μM 2-NBDG (ThermoFisher) for 6 hours prior to fixation. Fluorescence was observed under the Nikon Eclipse TE200 Inverted microscope (Nikon Instruments Inc., Melville, N.Y., USA). ImageJ software (NIH, Bethesda, Md., USA; http://imagej.nih.gov/ij/index.html) was used to measure intracellular protein levels in immuno-cytochemistry samples (Li et al. (2015) Toxicological Sciences: an Official Journal of the Society of Toxicology 143:196-208). Rpb1 levels were measured using the MEASURE feature of ImageJ where all the background signals were subtracted from the intergrated density of nuclear Rpb1."}, "[2]": {"system": "HeLa", "assay": "HeLa proliferation under hypoxia ([3H]-thymidine incorporation)", "assay_type": "cell-based, human", "details": "1% O2, 48 h post treatment"}, "[3]": {"details": "HeLa, 3 (unit uncertain) compound 1"}}}
{"smiles": "CC(C)[C@]12O[C@H]1[C@@H]1O[C@]13[C@]1(O[C@H]1C[C@H]1C4=C(CC[C@@]13C)C(=O)OC4)[C@@H]2OC(=O)CCCO[C@@H]1OC(CO)[C@@H](O)C(O)C1O", "note": "(stereo in doubt) [Compound 1]", "values": [{"measurement": "percentage of cells with nuclear fragmentation", "setting": "[1]; HeLa, 1 (unit uncertain) compound 1", "result": 23, "unit": "%"}, {"measurement": "cytochrome c release from mitochondria to cytosol", "setting": "[1]; [3]", "result": "triggers the release of cytochrome c"}, {"measurement": "percentage of cells with nuclear fragmentation", "setting": "[1]; [3]", "result": 53, "unit": "%"}, {"measurement": "caspase-3 activation", "setting": "[1]; HeLa, western blot", "result": "activated caspase-3 dose dependently"}, {"measurement": "PARP1 cleavage", "setting": "[1]; increasing concentrations of compound 1, western blot", "result": "Pronounced PARP1 cleavage"}, {"measurement": "effect of hypoxia on anti-proliferative effect", "setting": "[2]", "result": "enhances the anti-proliferative effect"}]}
